Read-outs that look alike come from different tables or passages of the source.
Assay: PK of compound of Formula (Ia) after single subcutaneous dose of solution formulations in beagle dogs
Type: in vivo
Conditions: male, beagle, dog, plasma, sc; for AUC(0-t): 6 mg/kg, mean ± SD, SC 6 mg/kg, solution V, 300 mg/mL
Method: Formulations containing the compound of Formula (Ia), or a pharmaceutically acceptable salt thereof, were prepared as solutions and optionally administered subcutaneously or intramuscularly to rats, rabbits, and/or dogs.
(§1) A solution of about 400 mg/mL of the compound of Formula (Ia) having 17.00 w/w % water, 36.40 w/w % PEG 300, 35.20 w/w % of a sodium salt of a compound of Formula (Ia), 5.00 w/w % ethanol, and 6.40 w/w % poloxamer 188 was prepared. The solution was administered subcutaneously to male beagle dogs at a dose level of about 12 mg/kg and male Wistar Han rats at a dose level of about 50 mg/kg. The pharmacokinetic profiles were determined, and the results for dogs are summarized in Table and Table, while the results for rats are summarized in Table and Table below.
as §1, with “500” for “400”, “14.06” for “17.00”, “30.12” for “36.40”
A solution of about 300 mg/mL of the compound of Formula (Ia) having 23.33 w/w % water, 48.99 w/w % PEG 300, 26.47 w/w % of a sodium salt of a compound of Formula (Ia), and 1.21 w/w % poloxamer 188 was prepared. The solution was administered subcutaneously to male beagle dogs at a dose level of about 6 mg/kg and male Wistar Han rats at a dose level of about 50 mg/kg. The pharmacokinetic profiles were determined, and the results for dogs are summarized in Table and Table, while the results for rats are summarized in Table and Table below.
as §1, with “18.80” for “17.00”, “40.25” for “36.40”, “34.38” for “35.20”, “1.57” for “6.40”
as §1, with “500” for “400”, “16.29” for “17.00”, “34.88” for “36.40”, “41.92” for “35.20”, “1.91” for “6.40”
as §1, with “20.90” for “17.00”, “44.72” for “36.40”, “and 34.38” for “35.20”, “(Ia)” for “(Ia), 5.00 w/w % ethanol, and 6.40 w/w % poloxamer 188”
A solution of about 400 mg/mL of the compound of Formula (Ia) having 19.90 w/w % water, 42.59 w/w % PEG 300, 34.38 w/w % of a sodium salt of a compound of Formula (Ia), and 3.13 w/w % poloxamer 188 was prepared. The solution was administered subcutaneously to male beagle dogs at a dose level of about 12 mg/kg and male Wistar Han rats at a dose level of about 50 mg/kg. […]

[1] = 12 mg/kg, mean, n = 3 dogs, SC 12 mg/kg, solution T, 400 mg/mL
[2] = 12 mg/kg, mean, n = 3 dogs, SC 12 mg/kg, solution U, 500 mg/mL
[3] = 12 mg/kg, individual dogs, SC 12 mg/kg, solution T, 400 mg/mL
[4] = 12 mg/kg, individual dogs, SC 12 mg/kg, solution U, 500 mg/mL
[5] = 12 mg/kg, beagle dogs, SC 12 mg/kg, 400 mg/mL solution AA (6.25% poloxamer 188), Mean n = 3
[6] = 12 mg/kg, beagle dogs, SC 12 mg/kg, 400 mg/mL solution AA (6.25% poloxamer 188), animals #1-#3
[7] = 12 mg/kg, beagle dogs, SC 12 mg/kg, 400 mg/mL solution W (5.00% ethanol, 1.57% poloxamer 188), Mean n = 3
[8] = 12 mg/kg, beagle dogs, SC 12 mg/kg, 400 mg/mL solution W (5.00% ethanol, 1.57% poloxamer 188), animals #1-#3

- AUC(0-t) (n = 3 dogs, read-out: AUC0-2016 h): 107 ± 12 µM·h
- AUC(0-t) (n = 3 dogs, read-out: AUC0-2253 h): 109 ± 12 µM·h
- AUC(0-t) (n = 3 dogs, read-out: AUC0-2688 h): 110 ± 12 µM·h
- AUC(0-t) (n = 3 dogs, read-out: AUC0-3024 h): 111 ± 13 µM·h
- AUC(0-t) (n = 3 dogs, read-out: AUC0-4032 h): 112 ± 13 µM·h
- AUC(0-t) (n = 3 dogs, read-out: AUC0-4368 h): 112 ± 13 µM·h
- concentration at 1 h [1]: 6.07 nM
- concentration at 1 h [2]: 5.59 nM
- concentration at 3 h [1]: 18.1 nM
- concentration at 3 h [2]: 22 nM
- concentration at 8 h [3]: 83.9 nM
- concentration at 8 h [1]: 72.9 nM
- concentration at 8 h [2]: 61.2 nM
- concentration at 24 h [3]: 233 nM
- concentration at 24 h [1]: 224 nM
- concentration at 24 h [2]: 134 nM
- concentration at 48 h [4]: 72.8 nM
- concentration at 48 h [1]: 241 nM
- concentration at 48 h [2]: 87.2 nM
- concentration at 72 h [4]: 49.4 nM
- concentration at 72 h [1]: 223 nM
- concentration at 72 h [2]: 58.6 nM
- concentration at 96 h [4]: 49 nM
- concentration at 96 h [1]: 232 nM
- concentration at 96 h [2]: 52.4 nM
- concentration at 168 h [1]: 221 nM
- concentration at 168 h [2]: 97.5 nM
- concentration at 336 h [3]: 179 nM
- concentration at 336 h [4]: 114 nM
- concentration at 336 h [1]: 261 nM
- concentration at 336 h [2]: 152 nM
- concentration at 504 h [3]: 286 nM
- concentration at 504 h [4]: 151 nM
- concentration at 504 h [1]: 238 nM
- concentration at 504 h [2]: 149 nM
- concentration at 672 h [3]: 150 nM
- concentration at 672 h [1]: 116 nM
- concentration at 672 h [2]: 81.9 nM
- concentration at 840 h [1]: 90.8 nM
- concentration at 840 h [2]: 72.6 nM
- concentration at 1008 h [3]: 75.5 nM
- concentration at 1008 h [1]: 73.6 nM
- concentration at 1008 h [2]: 58.3 nM
- concentration at 1344 h [3]: 42.5 nM
- concentration at 1344 h [4]: 43.3 nM
- concentration at 1344 h [1]: 36.2 nM
- concentration at 1344 h [2]: 34.8 nM
- concentration at 1680 h [3]: 19.9 nM
- concentration at 1680 h [1]: 23.9 nM
- concentration at 1680 h [2]: 21.3 nM
- concentration at 2016 h [1]: 11.8 nM
- concentration at 2016 h [2]: 10.3 nM
- concentration at 2352 h [3]: 4.8 nM
- concentration at 2352 h [1]: 6 nM
- concentration at 2352 h [2]: 7.5 nM
- concentration at 1 h [5]: 4 nM
- concentration at 3 h [5]: 13.8 nM
- concentration at 8 h [5]: 42.3 nM
- concentration at 24 h [5]: 134 nM
- concentration at 24 h [6]: 118 nM
- concentration at 48 h [5]: 148 nM
- concentration at 48 h [6]: 102 nM
- concentration at 72 h [5]: 135 nM
- concentration at 96 h [5]: 180 nM
- concentration at 96 h [6]: 140 nM
- concentration at 168 h [5]: 101 nM
- concentration at 168 h [6]: 106 nM
- concentration at 336 h [5]: 185 nM
- concentration at 336 h [6]: 204 nM
- concentration at 504 h [5]: 182 nM
- concentration at 672 h [5]: 183 nM
- concentration at 672 h [6]: 157 nM
- concentration at 840 h [5]: 109 nM
- concentration at 840 h [6]: 103 nM
- concentration at 1008 h [5]: 85.4 nM
- concentration at 1008 h [6]: 77.6 nM
- concentration at 1334 h [5]: 47.6 nM
- concentration at 1334 h [6]: 35.8 nM
- concentration at 1680 h [5]: 28 nM
- concentration at 1680 h [6]: 24 nM
- concentration at 2016 h [5]: 15.4 nM
- concentration at 2016 h [6]: 10.2 nM
- concentration at 2352 h [5]: 10.5 nM
- concentration at 2688 h (12 mg/kg, beagle dogs, SC 12 mg/kg, 400 mg/mL solution AA (6.25% poloxamer 188), 2688 h, Mean n = 3): 5.47 nM
- concentration at 3024 h (12 mg/kg, beagle dogs, SC 12 mg/kg, 400 mg/mL solution AA (6.25% poloxamer 188), 3024 h, Mean n = 3): 3.54 nM
- concentration at 3360 h (12 mg/kg, beagle dogs, SC 12 mg/kg, 400 mg/mL solution AA (6.25% poloxamer 188), 3360 h, Mean n = 3): 1.97 nM
- concentration at 3696 h (12 mg/kg, beagle dogs, SC 12 mg/kg, 400 mg/mL solution AA (6.25% poloxamer 188), Mean): 1.56 nM
- concentration at 3696 h [6]: 1.63 nM
- concentration at 3 h [7]: 3.84 nM
- concentration at 3 h [8]: 3.45 nM
- concentration at 8 h [7]: 18 nM
- concentration at 24 h [7]: 37.8 nM
- concentration at 24 h [8]: 35.4 nM
- concentration at 48 h [7]: 48.2 nM
- concentration at 72 h [7]: 48.6 nM
SMILES: CC(C)(C#Cc1ccc(-c2ccc(Cl)c3c(NS(C)(=O)=O)nn(CC(F)(F)F)c23)c([C@H](Cc2cc(F)cc(F)c2)NC(=O)Cn2nc(C(F)(F)F)c3c2C(F)(F)[C@@H]2C[C@H]32)n1)S(C)(=O)=O [compound of Formula (Ia)]
